Reference: US20030162759A1, “Aldosterone blocker therapy to prevent or treat inflammation-related disorders” (priority 2000, published 2003)
“And” between values parts separate entries of the source, which are not always exact repeats. Identical values can stand only once. “Also recorded” adds a separate entry of the source.

Key:
Format in all cases: in vivo, rat
[1] = system: aldosterone infused rats; assay: Assay B aldosterone infusion model: systolic blood pressure by radio-telemetry; details: saline-drinking, uni-nephrectomized Sprague Dawley rats, eplerenone 100 mpk p.o.
Experimental: Assay B: In vivo Aldosterone Infusion Model Male Sprague Dawley rats (n=39; BW=250 g) […] Uni-nephrectomy performed during implantation of mini-pumps 2. Aldosterone ([…], sc via aizet minipump) 2. […] 1. […] SBP measured by radio-telemetry probes inserted in the abdominal aorta Sacrifice after 4 weeks.

[2] = system: hydroxyproline; assay: Assay C: myocardial hydroxyproline assay; details: for Hydroxyproline: individual rats; for Hydroxyproline, Mean: group mean
Experimental: The procedure of Assay B was expanded upon in a further study. […] Myocardial tissue from animals in each treatment group was examined after 7, 14, or 30 days of treatment. […] Lesions were preceded by the expression and progressive upregulation of proinflammatory molecules. […] Prior to surgery the animals were individually weighed and placed in one of the following groups: […] Potassium chloride supplementation was added to the saline solution in order to prevent the potential hypokalemia associated with aldosterone excess. […] Louis, Mo.) was inserted subcutaneously at the nape of the neck. Aldosterone was administered at a dose of […]. […] Animals were sacrificed from each group (n=8-13) after 7, 14, or 30 days of treatment. Following exsanguination, hearts and kidneys were isolated, removed, rinsed in cold phosphate-buffered saline, and blotted dry. […] Myocardial hydroxyproline concentration was measured by a colorimetric assay that quantifies the reaction between oxidized hydroxyproline, and p-dimethylaminobenzaldehyde as described previously (4). […] Dried tissues and a positive collagen control (Bovine Collagen Type I, Sigma, St. […] T. Baker, Phillipsburg, N.J.) for 5 min at 25° C. […] Samples were incubated at 60° C. for 30 min, cooled to room temperature, and absorbance was monitored at 558 nm. Hydroxyproline content was quantitated from a freshly prepared standard curve of trans-4-hydroxy-L-proline (Sigma, St. Louis, Mo.). All samples and standards were performed in duplicate.

[3] = system: cyclooxygenase-2 (COX-2); assay: Assay C: COX-2 relative mRNA expression in heart (TaqMan); details: for COX-2, Mean / COX-2: mRNA; for COX-2, Mean: group mean; for COX-2: individual rats; for COX-2 mRNA expression in myocardium: time course 7, 14, 30 days, eplerenone 100 mg/kg/day
Experimental: (§1) The procedure of Assay B was expanded upon in a further study. […] Myocardial tissue from animals in each treatment group was examined after 7, 14, or 30 days of treatment.
(§2) Potassium chloride supplementation was added to the saline solution in order to prevent the potential hypokalemia associated with aldosterone excess.
(§3) At the time of the surgery, an Alzet 2002 osmotic minipump (Alza Corp., Palo Alto, Calif.) containing either vehicle (9% ethanol/87% propylene glycol/4% dH2O) or 1.0 mg/mL d-aldosterone (Sigma Chemical, St. Louis, Mo.) was inserted subcutaneously at the nape of the neck. Aldosterone was administered at a dose of 0.75 g/hour. […] Animals were sacrificed from each group (n=8-13) after 7, 14, or 30 days of treatment.
(§4) The fluorogenic 5′-nuclease assay (TaqMan PCR) using Applied Biosystems' 7700 Sequence Detection System (Applied Biosystems, Foster City, Calif.) allowed for real time detection/quantitation of a specific gene by monitoring the increase in fluorescence of a gene-specific, dye-labeled oligonucleotide probe. Probes for target and reference genes were labeled at the 5′-end with a 6-carboxyfluorescein (6FAM) reporter dye and at the 3′-end with a 6-carboxy-N,N,N′,N′-tetramethylrhodamine (TAMRA) quencher dye. When the probe was annealed to the target gene, fluorescence of 6FAM was prevented by the close proximity of TAMRA. The exonuclease activity of Taq polymerase released the dyes from the oligonucleotide probe by displacing the probe from the target sequence resulting in fluorescence excitation in direct proportion to the amount of target message present. Data analysis was performed using the Sequence Detection System software from Applied Biosystems.
(§5) All primers and probes were designed using Primer Express software supplied with the 7700 Sequence Detection System and synthesized by Applied Biosystems. Standard curves using 5-fold dilutions of total RNA (from 200 ng to 320 pg) were performed to determine the efficiency of each primer/probe set in the TaqMan reaction prior to the analysis of the experimental samples. Primer/probe sets were designed from known sequences of rat genes to be analyzed. All target gene values were normalized to a reference gene, constitutively expressed cyclophilin. Primer/probe set sequences can be found in Table 8.
(§6) RNA was extracted from frozen (−80° C.) rat heart tissue using the Totally RNA Isolation Kit (Ambion, Inc., Austin, Tex.). Tissue was crushed using a stainless steel mortar and pestle, which had been chilled to −80° C. and transferred to a dounce homogenizer (Kontes, Vineland, N.J.) containing 3-10 mL cold denaturation buffer. Tissue was homogenized and transferred to a sterile, 15 mL polypropylene centrifuge tube. An equal volume of phenol:chloroform:isoamyl alcohol (25:24:1) was added, samples were shaken vigorously for 1 min, and incubated on ice for at least 15 min. Samples were centrifuged for 30 min at 10,000 g. The aqueous phase was removed, 1/10 volume of a sodium acetate solution (3.0 M NaOAc pH 4.5) was added, samples were shaken or inverted for 10 seconds, and acid-phenol (premixed with isoamyl alcohol):chloroform (5:1, Ambion, Inc.) was added at an volume equivalent to the starting sample volume. Samples were shaken vigorously for 1 min, followed by a 15-min incubation on ice, and centrifuged for 30 min at 10,000 g. The aqueous phase removed and placed in a clean polypropylene tube. An equal volume of isopropanol (Sigma, St. Louis, Mo.) was added and the samples were mixed and incubated overnight at −20° C. The samples were centrifuged for 30 min at 10,000 g, the supernatant was removed and the RNA pellet was resuspended in DNAse/RNAse-free water. Samples were frozen at −80° C. for at least 2 hours, thawed on wet ice, and diluted for quantitation.

[4] = system: Vascular Cell Adhesion Molecule-1 (VCAM-1); assay: Assay C: VCAM-1 relative mRNA expression in heart (TaqMan); details: for VCAM, Mean / VCAM: mRNA; for VCAM, Mean: group mean; for VCAM: individual rats
Experimental: as §1, §2, §3, §4, §5, §6

[5] = 7 days of treatment, listed as Aldosterone + salt
[6] = 14 days of treatment, listed as Aldosterone + salt
[7] = 30 days of treatment, listed as Aldosterone + salt
[8] = 7 days of treatment, listed as Eplerenone + aldosterone + salt
[9] = 14 days of treatment, listed as Eplerenone + aldosterone + salt
[10] = 30 days of treatment, listed as Eplerenone + aldosterone + salt

Compound: C[C@]12CCC(=O)C=C1CC[C@@H]1[C@@H]2[C@@H](O)C[C@]2(C=O)[C@@H](C(=O)CO)CC[C@@H]12 [aldosterone]
- Systolic Blood Pressure [1]: Systolic blood pressure increased
- Hydroxyproline ([2]; Table 9.14, 7-day protocol, myocardial, listed as Aldosterone + salt): 2.10 µg/mg
- Hydroxyproline ([2]; 14 days of treatment, eplerenone 100 mg/kg/day, listed as Aldosterone + salt): 2.60 µg/mg and 3.00 µg/mg
- Hydroxyproline ([2]; 30 days of treatment, eplerenone 100 mg/kg/day, listed as Aldosterone + salt): 4.00 µg/mg
- COX-2, Mean ([3]; 14 days of treatment): 4.34 AU
- COX-2, Mean ([3]; 30 days of treatment): 4.53 AU
- COX-2 [3, 5]: 2.10 AU and 0.70 AU and 0.82 AU
- COX-2 [3, 6]: 5.80 AU and 4.18 AU
- COX-2 [3, 7]: 3.10 AU and 8.20 AU
- COX-2 mRNA expression in myocardium [3]: significantly increased
- VCAM-1 gene expression increase ([4]; day 30 of aldosterone+salt treatment, did not reach statistical significance): increased two-fold
- VCAM, Mean ([4]; 30 days of treatment): 2.14 AU
- VCAM [4, 5]: 0.85 AU and 0.61 AU and 0.94 AU and 0.27 AU
- VCAM [4, 6]: 0.89 AU and 0.69 AU and 0.84 AU and 0.72 AU
- VCAM [4, 7]: 0.72 AU

Compound: COC(=O)[C@@H]1CC2=CC(=O)CC[C@]2(C)[C@@]23O[C@@H]2C[C@@]2(C)[C@@H](CC[C@@]24CCC(=O)O4)[C@H]13 [eplerenone, Pregn-4-ene-7,21-dicarboxylic acid, 9,11-epoxy-17-hydroxy-3-oxo-, γ-lactone, methyl ester, (7α, 11α, 17β) -]
- Systolic Blood Pressure [1]: significantly reduced, but did not normalize blood pressure; also recorded: depression of this elevation
- Hydroxyproline, Mean ([2]; 14 days of treatment): 4.46 µg/mg
- Hydroxyproline, Mean ([2]; 30 days of treatment): 4.10 µg/mg
- Hydroxyproline ([2]; 14 days of treatment, eplerenone 100 mg/kg/day, listed as Eplerenone + aldosterone + salt): 6.80 µg/mg
- Hydroxyproline ([2]; 30 days of treatment, eplerenone 100 mg/kg/day, listed as Eplerenone + aldosterone + salt): 6.40 µg/mg
- COX-2, Mean ([3]; 7 days of treatment): 1.25 AU
- COX-2, Mean ([3]; 14 days of treatment): 2.02 AU
- COX-2, Mean ([3]; 30 days of treatment): 2.28 AU
- COX-2 [3, 8]: 1.19 AU and 0.60 AU (2×) and 0.82 AU and 0.91 AU
- COX-2 [3, 9]: 0.70 AU and 0.99 AU and 0.86 AU
- COX-2 [3, 10]: 0.55 AU and 1.34 AU
- COX-2 mRNA expression in myocardium [3]: inhibition of early time-course expression of myocardial COX-2; also recorded: significantly reduced
- VCAM, Mean ([4]; 7 days of treatment): 0.56 AU
- VCAM, Mean ([4]; 14 days of treatment): 0.83 AU
- VCAM, Mean ([4]; 30 days of treatment): 1.04 AU
- VCAM [4, 8]: 0.67 AU and 0.58 AU and 0.22 AU and 0.57 AU and 0.53 AU and 1.00 AU
- VCAM [4, 9]: 0.54 AU and 0.66 AU and 0.61 AU (2×) and 0.67 AU and 0.86 AU and 1.00 AU and 0.68 AU (2×) and 1.60 AU
- VCAM [4, 10]: 0.79 AU and 0.52 AU and 0.57 AU and 0.61 AU
- VCAM-1 mRNA expression in myocardium ([4]; time course 7, 14, 30 days, eplerenone 100 mg/kg/day): significantly reduced; also recorded: inhibition of early time-course expression of myocardial ICAM-1 and VCAM-1
